Test results: ChEMBL document CHEMBL4308881, “Tetradehydrohalicyclamine B, a new proteasome inhibitor from the marine sponge Acanthostrongylophora ingens” (Bioorg Med Chem Lett, 2019)
Calls of active or inactive are those of the source. The rule behind the calls is not given here.

Experiments:
Format in all cases: cell-based
[1] = target: T1, Proteasome subunit beta type-10 (Homo sapiens, UniProt P40306); experiment: Inhibition of 20s immunoproteasome MECL1 in human erythrocytes using Suc-Leu-Leu-ValTyr-MCA as substrate preincubated for 10 mins followed by substrate addition and measured after 6 hrs by fluorescence assay
T1 sequence (P40306 whole entry): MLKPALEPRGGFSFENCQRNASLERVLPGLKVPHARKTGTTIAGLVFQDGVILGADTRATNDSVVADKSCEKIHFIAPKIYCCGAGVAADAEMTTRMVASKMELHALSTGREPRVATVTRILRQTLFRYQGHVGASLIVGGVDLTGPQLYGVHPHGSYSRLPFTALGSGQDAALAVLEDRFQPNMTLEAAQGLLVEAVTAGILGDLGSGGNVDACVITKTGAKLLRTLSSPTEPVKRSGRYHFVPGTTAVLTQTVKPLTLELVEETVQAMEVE

[2] = target: T2, Proteasome subunit beta type-8 (Homo sapiens, UniProt P28062); experiment: Inhibition of 20s immunoproteasome LMP7 in human erythrocytes using Suc-Leu-Leu-ValTyr-MCA as substrate preincubated for 10 mins followed by substrate addition and measured after 6 hrs by fluorescence assay
T2 sequence (P28062 whole entry): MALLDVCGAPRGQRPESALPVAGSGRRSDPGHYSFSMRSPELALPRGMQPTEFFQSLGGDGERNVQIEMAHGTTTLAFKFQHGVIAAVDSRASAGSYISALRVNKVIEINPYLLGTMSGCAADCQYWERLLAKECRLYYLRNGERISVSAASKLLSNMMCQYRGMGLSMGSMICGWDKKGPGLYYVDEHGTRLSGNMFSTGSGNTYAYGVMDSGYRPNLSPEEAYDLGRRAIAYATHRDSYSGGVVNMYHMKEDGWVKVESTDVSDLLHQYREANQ

[3] = target: T3, Proteasome subunit beta type-9 (Homo sapiens, UniProt P28065); experiment: Inhibition of 20s immunoproteasome LMP2 in human erythrocytes using Ac-Pro-Ala-Leu-MCA as substrate preincubated for 10 mins followed by substrate addition and measured after 6 hrs by fluorescence assay
T3 sequence (P28065 whole entry): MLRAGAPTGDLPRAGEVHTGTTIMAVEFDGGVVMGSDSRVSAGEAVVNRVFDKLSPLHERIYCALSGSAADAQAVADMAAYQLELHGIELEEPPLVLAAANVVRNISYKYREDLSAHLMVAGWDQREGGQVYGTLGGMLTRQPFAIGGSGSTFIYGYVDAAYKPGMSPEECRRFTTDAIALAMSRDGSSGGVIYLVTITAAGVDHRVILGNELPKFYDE

HeLa [4] = experiment: Cytotoxicity against human HeLa cells after 3 days by MTT assay; details: 72 h
[5] = target: T4, Proteasome Macropain subunit MB1 (Homo sapiens, UniProt P28074); experiment: Inhibition of 20s constitutive proteasome beta5 chymotrypsin-like activity in human erythrocytes using Suc-Leu-Leu-ValTyr-MCA as substrate preincubated for 10 mins followed by substrate addition and measured after 6 hrs by fluorescence assay
T4 sequence (P28074 whole entry): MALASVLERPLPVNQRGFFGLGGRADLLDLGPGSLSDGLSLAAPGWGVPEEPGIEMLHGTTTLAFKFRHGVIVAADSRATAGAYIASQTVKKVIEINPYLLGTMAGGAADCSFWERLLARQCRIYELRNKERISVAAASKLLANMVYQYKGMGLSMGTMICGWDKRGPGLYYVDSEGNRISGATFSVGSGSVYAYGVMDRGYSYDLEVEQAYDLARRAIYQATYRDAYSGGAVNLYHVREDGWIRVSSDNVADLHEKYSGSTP

[6] = target: T5, Proteasome subunit beta type-10 (Homo sapiens) (UniProt P40306); experiment: Inhibition of 20s immunoproteasome MECL1 in human erythrocytes at 15 uM using Suc-Leu-Leu-ValTyr-MCA as substrate preincubated for 10 mins followed by substrate addition and measured after 6 hrs by fluorescence assay
T5 sequence (whole entry): T1 sequence (P40306 whole entry)

HeLa [7] = experiment: Cytotoxicity against human HeLa cells at 50 uM after 3 days by MTT assay; details: 72 h

| SMILES | IC50 [1] | IC50 [2] | IC50 [3] | IC50 (HeLa [4]) | IC50 [5] | inhibition [6] | Activity (HeLa [7]) |
| --- | --- | --- | --- | --- | --- | --- | --- |
| C1=C2CN3CCCC/C=C\CC[C@@H]4CN(CCCC/C=C\CC[C@H]1C3)CC[C@@H]24 | 8 µM | 630 nM | 440 nM | 12 µM | 420 nM | – | – |
| C1=C\CCc2cc3c[n+](c2)CCCC/C=C\CC[C@@H]2CN(CCCC/1)CC[C@@H]32 | – | 4100 nM | 3100 nM | – | 1800 nM | inactive | Non-Toxic |
